Measurements: patent US10875861B1, “Therapeutic compounds” (Rutgers, The State University of New Jersey, priority 2017, dated 2020)

Tests used:
[1] = tested on: glioblastoma cancer cell line; assay: MTT viability assay with glioblastoma cancer cell line (Test A); assay type: cell-based, human; details: Homo sapiens, 72 hours
Source text: To generate primary patient-derived GBM models for testing small molecule inhibitors, fresh primary tissues were received from patients undergoing surgical resection of WHO grade IV gliomas at Robert Wood Johnson University Hospital (RWJUH) under an approved IRB protocol. De-identified primary human GBM samples were delivered to the laboratory. Cells were obtained through mechanical dissociation of the tumor tissue using a blade and plated in DMEM/F12 medium (Gibco) in the presence of B-27 Supplement (Gibco, #17504-044), 20 ng/ml of human recombinant EGF (Gibco, #PHG0311L) and human recombinant FGF (Peprotech, #AF-100-18B). The following day, the culture was collected, incubated with Accutase (Gibco, #A11105-01) at 37° C. and passed through a 26G×⅜ needle (BD Precision Glide, #305110) to obtain a single cell suspension and re-plated in the same supplemented medium. Cells were cultured at low (5-6) passages in serum-free sphere 3D culture with mitogens that preserve the clonogenic stemness phenotype. […] different primary GBM cells (GBM #46, GBM #50, and GBM #76) were tested for cell viability after treatment with the inhibitors. Cell viability was measured using MTT assay. Briefly, one thousand cells per well were seeded in 96-well plates and exposed to drug in a total of 200 uL media. After 72 hours, 50 uL of stock concentration of 2.5 mg/mL 3-(4,5-dimethylthiazol-2-yl)-2,5-diphenyltetrazolium bromide (MTT) (Sigma, #M2128) dissolved in PBS was added to wells and incubated at 37° C. for 4 hours; read in a […] plate reader at 570 nm and compared to DMSO and untreated cells. The IC50 (defined as the concentration at which 50% of the cells were viable) was determined from the curve.
Accordingly, compounds of the invention may be useful as therapeutic agents for the treatment of cancer.
To generate primary patient-derived GBM models for testing small molecule inhibitors, fresh primary tissues were received from patients undergoing surgical resection of WHO grade IV gliomas at Robert Wood Johnson University Hospital (RWJUH) under an approved RB protocol. De-identified primary human GBM samples were delivered to the laboratory. Cells were obtained through mechanical dissociation of the tumor tissue using a blade and plated in DMEM/F12 medium (Gibco) in the presence of B-27 Supplement (Gibco, #17504-044), 20 ng/ml of human recombinant EGF (Gibco, #PHG0311L) and human recombinant FGF (Peprotech, #AF-100-18B). […] Cell viability was measured using MTT assay. […] After 72 hours, 50 uL of stock concentration of 2.5 mg/mL 3-(4,5-dimethylthiazol-2-yl)-2,5-diphenyltetrazolium bromide (MTT) (Sigma, #M2128) dissolved in PBS was added to wells and incubated at 37° C. for 4 hours; read in a […] plate reader at 570 nm and compared to DMSO and untreated cells. […]

[2] = tested on: BMI-1 and ubiquitinated histone H2A in primary glioblastoma cells; assay: Modulation / dynamics of BMI-1 and downstream targets in GBM cells (Western blotting); assay type: cell-based, human; details: GBM cells, B compounds, 72 hours
Protocol: Different GBM cells were treated with DMSO or different concentrations of the B compounds for 72 hours. Cells were lysed in Cell Lysis Buffer (Cell Signaling, #9803) supplemented with Protease Inhibitor Cocktail (Sigma, #P8340), spun down for 30 minutes at 4° C., after which the supernatant was collected at every time point indicated. Western blotting analysis was performed on all samples as described above. BMI-1 loss started at 6-12 h, coinciding with an upper shift and hyper-phosphorylation of BMI-1 at 12-24 h and complete depletion at 72 h.
To study the compound dynamic activity against GBM spheres, GBMs were tested with exemplary compounds. Different GBM cells were treated with DMSO or different concentrations of the inhibitors for 72 hours. Cells were lysed in Cell Lysis Buffer (Cell Signaling, #9803) supplemented with Protease Inhibitor Cocktail (Sigma, #P8340), spun down for 30 minutes at 4° C., after which the supernatant was collected at every time point indicated. Western blotting analysis was performed on all samples as described above. […] BMI-1 loss started at 6-12 h, coinciding with an upper shift and hyper-phosphorylation of BMI-1 at 12-24 h and complete depletion at 72 h. […] This is expected since BMI-1 is known to suppress p21. BMI-1 inhibition could be reversed using phosphatase treatment, moreover, when proteasomal inhibitor is added to treated cells after 24 h, BMI-1 is locked in the phosphorylated state, therefore showing that the phosphorylation event precedes BMI-1 degradation. The phosphorylation was independent of p38 kinase activation, as when we added […], the p38 inhibitor to the cultured cells upon treatment with the BMI-1 inhibitor, the combined treatment could not reverse the effects of RU-A15 on BMI-1 inhibition.

EC50 [1]: 5 µM
Structure (SMILES): COc1ccc(Nc2nc(-c3nc4ncccn4c3C)cs2)cc1 [Example B1, N-(4-methoxyphenyl)-4-(3-methylimidazo[1,2-a]pyrimidin-2-yl)thiazol-2-amine]
modulation of BMI-1 (Test B) [2]: modulation of BMI-1 | modulation of ubiquitinated histone H2A (Test B) [2]: modulation of downstream target ubiquitinated histone H2A
